Laboratory results from PubChem BioAssay (NCI).
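Compound exposure: 48 hours, 5 concentrations, 96-well plates. GI50 marks 50% less growth. TGI: total growth inhibition.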

Columns and labels:
Experiment in all cases: DTP human tumour cell line panel, 48 h
NCI-H226 lung = test system: NCI-H226 lung
MCF7 breast = test system: MCF7 breast
HCC-2998 colon = test system: HCC-2998 colon
ACHN renal = test system: ACHN renal
SK-MEL-5 melanoma = test system: SK-MEL-5 melanoma
OVCAR-4 ovarian = test system: OVCAR-4 ovarian
IGROV1 ovarian = test system: IGROV1 ovarian
MALME-3M melanoma = test system: MALME-3M melanoma
OVCAR-8 ovarian = test system: OVCAR-8 ovarian
UACC-62 melanoma = test system: UACC-62 melanoma
SN12C renal = test system: SN12C renal
SF-539 CNS = test system: SF-539 CNS
SR leukemia = test system: SR leukemia
SW-620 colon = test system: SW-620 colon
SNB-75 CNS = test system: SNB-75 CNS
U251 CNS = test system: U251 CNS
MOLT-4 leukemia = test system: MOLT-4 leukemia
PC-3 prostate = test system: PC-3 prostate
A498 renal = test system: A498 renal
NCI/ADR-RES ovarian = test system: NCI/ADR-RES ovarian
OVCAR-5 ovarian = test system: OVCAR-5 ovarian
T-47D breast = test system: T-47D breast
MDA-MB-231 breast = test system: MDA-MB-231 breast
COLO 205 colon = test system: COLO 205 colon
HS 578T breast = test system: HS 578T breast
KM12 colon = test system: KM12 colon
NCI-H460 lung = test system: NCI-H460 lung
UO-31 renal = test system: UO-31 renal
HCT-116 colon = test system: HCT-116 colon

With Brc1c[n+](Cc2ccc3ccccc3c2)cn1Cc1ccc2ccccc2c1 the GI50 (NCI-H226 lung) was 2.24 µM, the TGI (NCI-H226 lung) was 5.87 µM and the GI50 (MCF7 breast) was 1.59 µM. It also gave a TGI (MCF7 breast) of 3.39 µM, a GI50 (HCC-2998 colon) of 1.46 µM and a TGI (HCC-2998 colon) of 2.84 µM. It also gave a GI50 (ACHN renal) of 11.8 µM, a TGI (ACHN renal) of 25.5 µM and a GI50 (SK-MEL-5 melanoma) of 1.6 µM. It also gave a TGI (SK-MEL-5 melanoma) of 2.96 µM, a GI50 (OVCAR-4 ovarian) of 1.32 µM and a TGI (OVCAR-4 ovarian) of 2.76 µM. It also gave a GI50 (IGROV1 ovarian) of 0.676 µM, a TGI (IGROV1 ovarian) of 2.08 µM and a GI50 (MALME-3M melanoma) of 1.22 µM. The TGI (MALME-3M melanoma) was 2.71 µM, the GI50 (OVCAR-8 ovarian) was 1.89 µM and the TGI (OVCAR-8 ovarian) was 4.55 µM. The GI50 (UACC-62 melanoma) was 1.24 µM, the TGI (UACC-62 melanoma) was 2.58 µM and the GI50 (SN12C renal) was 1.52 µM. The TGI (SN12C renal) was 2.94 µM, the GI50 (SF-539 CNS) was 1.56 µM and the TGI (SF-539 CNS) was 3.04 µM. For the same compound, the GI50 (SR leukemia) was 1.17 µM, the TGI (SR leukemia) was 5.11 µM and the GI50 (SW-620 colon) was 1.61 µM. The TGI (SW-620 colon) was 3.62 µM, the GI50 (SNB-75 CNS) was 1.34 µM and the TGI (SNB-75 CNS) was 3.03 µM. The GI50 (U251 CNS) was 1.67 µM, the TGI (U251 CNS) was 3.51 µM and the GI50 (MOLT-4 leukemia) was 1.79 µM. It also gave a TGI (MOLT-4 leukemia) of 5.58 µM, a GI50 (PC-3 prostate) of 1.54 µM and a TGI (PC-3 prostate) of 3.62 µM. It also gave a GI50 (A498 renal) of 1.88 µM, a TGI (A498 renal) of 5.09 µM and a GI50 (NCI/ADR-RES ovarian) greater than 100 µM. It also gave a TGI (NCI/ADR-RES ovarian) greater than 100 µM, a GI50 (OVCAR-5 ovarian) of 2.13 µM and a TGI (OVCAR-5 ovarian) of 8.71 µM. It also gave a GI50 (T-47D breast) of 2.14 µM, a TGI (T-47D breast) of 7.2 µM and a GI50 (MDA-MB-231 breast) of 1.4 µM. For the same compound, the TGI (MDA-MB-231 breast) was 2.86 µM, the GI50 (COLO 205 colon) was 1.31 µM and the TGI (COLO 205 colon) was 3.16 µM. The GI50 (HS 578T breast) was 1.92 µM, the TGI (HS 578T breast) was 4.84 µM and the GI50 (KM12 colon) was 1.67 µM. The TGI (KM12 colon) was 3.28 µM, the GI50 (NCI-H460 lung) was 1.78 µM and the TGI (NCI-H460 lung) was 3.57 µM. It also gave a GI50 (UO-31 renal) of 7.09 µM, a TGI (UO-31 renal) of 23.1 µM and a GI50 (HCT-116 colon) of 1.21 µM. For the same compound, the TGI (HCT-116 colon) was 2.49 µM.
